Experiment [1] relates to H1650 cells. Format: cell-based. As to the method:
A MTAP-null NSCLC cancer cell line (H1650) was treated with the combination of Compound G and erlotinib for 6 days. Compound G was performed at a 1.9-fold dilution series and the combination partner was performed at 1.2 to 1.7 fold dilution series to create an 8×10 dose matrix including DMSO-only controls. Cell viability was measured by the CellTiter-Glo Luminescence assay. Raw luminescent values were converted to fraction affected (Fa) with the following equation: […]
(§1) Synergy analysis was performed using the CalcuSyn software to determine CI scores based on the drug concentrations used and corresponding Fa values.

In the next experiment the test system is MiaPaCa2 PDAC xenografts. More on the design: species or system Female NOD/SCID mice. Conditions: mouse, in vivo.
Experiment [2] concerns A549 cells. Briefly: CellTiter-Glo viability and CalcuSyn synergy, PRMT5 inhibitor + palbociclib, 6 days. Conditions: a549 cells, 8640 min, 0.437382 µM.
Experiment [3] deals with A549 cells. Briefly: CellTiter-Glo viability and CalcuSyn synergy, PRMT5 inhibitor + trametinib, 6 days.
Experiment [4] deals with A549 cells. Briefly: CellTiter-Glo viability and CalcuSyn synergy, PRMT5 inhibitor + KRAS G12X inhibitor, 6 days. To be noted: a549 cells, 8640 min, 0.4374 µM.
The next experiment relates to LU5268 NSCLC xenografts. Conditions: mouse, in vivo.
Experiment [5] deals with MIAPACA2T2 cells. As to the kind of experiment: CellTiter-Glo viability and CalcuSyn synergy, PRMT5 inhibitor + trametinib, 6 days.
The subject of experiment [6] is LU99 NSCLC xenografts. To be noted: mouse, in vivo.
For another experiment, the system named is PSN1 cells. As to the kind of experiment: CellTiter-Glo viability and CalcuSyn synergy, PRMT5 inhibitor + KIF18A, 6 days. Conditions: psn1 cells, 8640 min, 0.0767 µM.
Experiment [7] relates to H1650 cells. Format: cell-based. Conditions: 8640 min, 0.44 µM. As to the method:
A MTAP-null NSCLC cancer cell line (H1650) was treated with the combination of Compound G and osimertinib for 6 days. Compound G was performed at a 1.9-fold dilution series and the combination partner was performed at 1.2 to 1.7 fold dilution series to create an 8×10 dose matrix including DMSO-only controls. Cell viability was measured by the CellTiter-Glo Luminescence assay. Raw luminescent values were converted to fraction affected (Fa) with the following equation: […]
as §1

A further experiment deals with HCC1395 cells. Briefly: CellTiter-Glo viability and CalcuSyn synergy, PRMT5 inhibitor + olaparib, 6 days. To be noted: hcc1395 cells, 8640 min, 0.7673 µM.
The test system of experiment [8] is LU99 NSCLC xenografts. To be noted: mouse, in vivo. This is another data set of the same source.
Experiment [9] concerns MIAPACA2T2 cells. As to the kind of experiment: CellTiter-Glo viability and CalcuSyn synergy, PRMT5 inhibitor + sotorasib, 6 days. To be noted: miapaca2t2 cells, 8640 min, 0.4374 µM.
Experiment [10] concerns MIAPACA2T2 cells. As to the kind of experiment: CellTiter-Glo viability and CalcuSyn synergy, PRMT5 inhibitor + KIF18A, 6 days.
The subject of another experiment is LU99 cells. Briefly: CellTiter-Glo viability and CalcuSyn synergy, PRMT5 inhibitor + sotorasib, 6 days.
The next experiment concerns H292 cells. As to the kind of experiment: CellTiter-Glo viability and CalcuSyn synergy, PRMT5 inhibitor + palbociclib, 6 days. Conditions: h292 cells, 8640 min, 0.1212 µM.

Where “and” joins values, the source holds several entries; their conditions need not be identical. Identical values can stand only once. Like-named read-outs stand apart in the source and are kept apart here.

Consider one molecule from US20260373156A1, “CANCER TREATMENTS USING MTA-COOPERATIVE PRMT5 INHIBITORS” (AMGEN INC., priority 2022, published 2026).

Experimental for MiaPaCa2 PDAC xenografts: FIG. 6A: Mice were implanted with LU99 (NSCLC CDX) tumors, FIG. 6B: LU5268 (NSCLC PDX) tumors. FIG. 6C: MiaPaCa2 (PDAC CDX) tumors. Vehicle, Compound G, and sotorasib were dosed as indicated. Data represent mean±SD, n=10 for each group.
10 Female NOD/SCID mice were implanted with LU99 NSCLC, LU5268 NSCLC or MisPaCa2 PDAC tumor xenografts. Mean tumor volumes for each grouping were between 100-200 mm^3. Mice were allocated to the four different study groups by tumor volume and dosing was initiated with Vehicle, Compound G (100 mg/kg), sotorasib (100 mg/kg) orally once daily or a combination of Compound G (100 mg/kg) with sotorasib (100 mg/kg). Plotted data represents the TGI (tumor growth inhibition), n=10 for each group.

In the case of `Nc1nc2cnc(C(=O)N3CCOC[C@@H]3c3ccc(C(F)(F)F)cc3)cc2c2c1COC2` [Compound G], the “Computed CI value” was 0.40 and 0.29 and 0.34 and 0.35 and 0.52 and 0.48 in the experiment with H1650 cells [1]; 0.276 and 0.365 and 0.349 and 0.48 and 0.512 and 0.43 and 0.384 with A549 cells [3]; 0.579 and 0.774 and 0.806 and 0.84 and 0.868 and 0.784 and 0.557 in the experiment with MIAPACA2T2 cells [5]; 0.561 and 0.6 and 0.594 and 0.774 and 0.68 and 1.044 and 0.802 in the experiment on MIAPACA2T2 cells [10]; 0.276 and 0.234 and 0.289 and 0.249 and 0.281 and 0.424 and 0.294 in the experiment on LU99 cells. Also, the “Combination Fa” value in the experiment with H1650 cells [1] (h1650 cells, 8640 min, 0.23 µM) is 0.73 and 0.67 and 0.64 and 0.59 and 0.79 and 0.75; in the experiment with A549 cells [2] it was 0.717 and 0.713 and 0.732 and 0.683 and 0.682 and 0.86 and 0.735; in the experiment with A549 cells [3] (a549 cells, 8640 min, 0.4374 µM) it was 0.8494 and 0.7817 and 0.7499 and 0.6788 and 0.6495 and 0.894 and 0.8631; with A549 cells [4], 0.8549 and 0.7807 and 0.755 and 0.7181 and 0.6897 and 0.833 and 0.8551; in the experiment with MIAPACA2T2 cells [5] (miapaca2t2 cells, 8640 min, 0.83102 µM) it was 0.792 and 0.69 and 0.63 and 0.583 and 0.551 and 0.868 and 0.85; in the experiment with PSN1 cells it was 0.858 and 0.868 and 0.837 and 0.811 and 0.781 and 0.923 and 0.86. In addition, the “Combination Fa” value in the experiment with H1650 cells [7] is 0.74 and 0.73 and 0.69 and 0.67 and 0.66 and 0.88 and 0.76; in the experiment with HCC1395 cells it was 0.6464 and 0.5971 and 0.5852 and 0.5488 and 0.55 and 0.7334 and 0.6661; with MIAPACA2T2 cells [9] it was 0.818 and 0.785 and 0.712 and 0.633 and 0.519 and 0.829 and 0.84; in the experiment on MIAPACA2T2 cells [10] (miapaca2t2 cells, 8640 min, 0.437381 µM), 0.7856 and 0.6938 and 0.6123 and 0.4815 and 0.4538 and 0.85 and 0.8122; in the experiment on LU99 cells (lu99 cells, 8640 min, 0.1458 µM) it was 0.817 and 0.821 and 0.794 and 0.804 and 0.787 and 0.825; with H292 cells it was 0.8154 and 0.7885 and 0.7925 and 0.7748 and 0.7116 and 0.8564 and 0.824. Moreover, the tumor growth inhibition result in the experiment on MiaPaCa2 PDAC xenografts, in the experiment on LU5268 NSCLC xenografts and with LU99 NSCLC xenografts [8] was “significantly inhibits tumor growth” in each case. For the same molecule, in the experiment on LU99 NSCLC xenografts [6], the anti-tumor activity result is “significant anti-tumor activity versus either single agent alone”.
